Substitutions are numbered along the chain they refer to. Where a SMILES comes first, the peptide text is derived from it. The star is where a group is joined. Cbz = O=C(OCc1ccccc1)*
Columns and labels:
HEK 562 = test: Porphyrin accumulation (fluorocytes) by FACS in cellular model of CEP; format: cell-based, human; conditions: HEK 562 CEP model
Protocol: FIG. 3: Evaluation of UROI levels in a normal HEK cellular phenotype [Up-left graph], in a human in vitro cellular model of CEP (HEK 562) [Up-right graph], in HEK 562 with a tool compound (a proteasome inhibitor termed in the data MG) [Down-left graph], and in HEK 562 with ciclopirox [Down-right graph]. The accumulation of porphyrins is measured by fluorescence spectroscopy (fluorocytes) and is depicted in as the right-shift of the population as compared to normal cells (that are concentrated on the left due to the absence of intrinsic fluorescence). The numbers in bold indicate the percentage of cells in each of the specific populations. CP=ciclopirox, MG=proteasomal inhibitor MG132.
The current supporting data disclosed is in relation to a human in vitro cellular model of CEP (HEK 562) in which there is a stable genomic defect introduced into the uroporphyrinogen III synthase enzyme which drives the accumulation of toxic porphyrins and ultimately the pathology of CEP (including the characteristic disabling and disfiguring skin lesions in CEP patients). […] The accumulation of porphyrins is measured by fluorescence spectroscopy (fluorocytes) and appear shifted to the right as compared to normal cells (which are concentrated in the left area). The numbers in bold indicate the percentage of cells in each of the specific populations. […]

HEK 562 cells = test: HPLC quantification of UROI in cellular model of CEP; format: cell-based, human; conditions: equimolar quantities of MG and ciclopirox
Protocol: Inset: variation of the concentration of UROI as a function of the CP concentration, in comparison to MG and the absence of any chemical. CP=ciclopirox, MG=proteasomal inhibitor MG132, UROI=uroporphyrinogen I.
Moreover, the reduction in the fluorescence corresponds to a decrease in the intracellular concentration of UROI (see FIG. 4).
HPLC was used to separate and quantify UROI and UROIII products from PBGD and UROIIIS-C73N enzymatic assays and from cellular extracts. HPLC was carried out on a ODS Hypersil C18 column (5 um, 3×200 mm; Thermo Scientific, MA, USA). Porphyrins were separated with a 15 min isocratic elution in a mobile phase of 89% 1M ammonium acetate buffer pH 5.16 and 11% Acetonitrile, at a flow rate of 0.5 mL/min, and were detected by fluorescence with an excitation wavelength 405 nm and emission wavelength 610 nm, which is characteristic of porphyrins. The sample injection volume was […].

[1] = tested on: mouse in vivo model of CEP; conditions: associated with elevation of cellular UROIIIS levels; cited from earlier work
C73N-UROIIIS = molecular target: T1, C73N-UROIIIS (Homo sapiens, UniProt P10746, C73N); test: In vitro enzymatic assay of UROIIIS (PBGD-coupled, as a function of PBG concentration); format: biochemical; conditions: ratio UROIIIS:ciclopirox 1:5
T1 construct: made in house
T1 sequence (P10746 1-265 C73N): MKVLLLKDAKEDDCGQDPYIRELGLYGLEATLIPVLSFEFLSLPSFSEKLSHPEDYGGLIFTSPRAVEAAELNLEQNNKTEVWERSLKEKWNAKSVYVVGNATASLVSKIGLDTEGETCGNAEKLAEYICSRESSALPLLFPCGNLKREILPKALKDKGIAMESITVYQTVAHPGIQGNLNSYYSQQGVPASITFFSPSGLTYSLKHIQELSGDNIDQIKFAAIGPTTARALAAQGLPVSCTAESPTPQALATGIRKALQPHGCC
Protocol: FIG. 1: evaluation of the C73N-UROIIIS catalytic activity as a function of the PBG concentration. Porphobilinogen deaminase (PBGD) converts porphobilinogen (PBG) into preuroporphirinogen, the substrate for UROIIIS. PBGD is added in excess, acting as a reagent and the experiment reports only on the catalytic activity of the uroporphyrinogen III synthase. The solid/dashed lines correspond to the experimental points in the absence/presence of ciclopirox at a ratio UROIIIS:ciclopyrox 1:5.
The in vitro activity of a deleterious variant of the UROIIIS is measured as a function of the PBG concentration. […] C73N-UROIIIS produces reduced catalytic activity of the enzyme (FIG. 1, solid line).
The assay is based on the method described by Jordan (Shoolingin-Jordan P M et al. (1997). Methods in enzymology 281: 327-336) with some modifications. […] of porphobilinogen deaminase (PBGD) at a concentration of […] in […] of buffer (20 mM Tris-HCl pH 8.0, NaCl 150 mM, pH 8.0) is add in a 96 weels plate. […] of the porphobilinogen (PBG) substrate are then added, diluted to different concentrations (0.1, 0.4, 0.8, 1.5, 2, 3, 4 mM) in the aforementioned buffer and are incubated at 37° C. for one minute. […] Finally, we measure the change of absorbance at 405 nm with respect to the control sample in a plate ABS reader.

UROIIIS = molecular target: T2, UROIIIS (Homo sapiens, UniProt P10746); test: Direct binding by NMR spectroscopy
T2 construct: made in house
T2 sequence (P10746 1-265): T1 sequence (P10746 1-265 C73N) with N73C

C73R- and P248Q-UROIIIS = molecular target: T3, C73R- and P248Q-UROIIIS (Homo sapiens, UniProt P10746, C73R); test: UROIIIS-GFP protein levels (GFP fluorescence) in HEK cells stably expressing mutants; format: cell-based; conditions: HEK cells expressing C73R or P248Q mutants, compared with WT-UROIIIS
T3 construct: expressed in transfected cells
T3 sequence (P10746 1-265 C73R): T1 sequence (P10746 1-265 C73N) with N73R
Source text: FIG. 2: A fusion construct with GFP (C73R-UROIIIS-GFP) has been stably expressed in HEK cells to measure the increase in the protein levels, by monitoring the intrinsic GFP fluorescence. […] Introduction of the pathogenic mutations (i. e. C73R or P248Q) reduces the intrinsic fluorescence due to a decrease in the intracellular UROIIIS concentration. […] For comparison, data obtained with a powerful proteasome inhibitor (MG) is also included. Dashed lines correspond to error bars. CP=ciclopirox, MG=proteasomal inhibitor MG132.
Specifically, we have tested the protein expression for the two most aggressive mutations: C73R- and P248Q-UROIIIS (FIG. 2), utilising human embryonic kidney cells (HEK) stably expressing these mutations.

[2] = tested on: murine model of CEP (P248Q+/+); test: Murine model of CEP treated with ciclopirox in food; format: in vivo, mouse
Source text: FIG. 5: Change in porphyrin levels and consequent effect on splenomegaly in mice treated with ciclopirox (CPX). A) Left: URO I or B) COPRO I porphyrin concentration in red blood cells (RBC) as determined by HPLC analysis for the mouse group treated with CPX (n=7, solid line) and the control group (n=9, dashed line). Right: representation of the same porphyrin levels but compared to their respective values at day 0 for the mice treated with CPX (solid line) and the untreated mice (dashed line). The reduction of porphyrins between the two groups is shown in grey dashed line (in percentage). C) Variation in the protoporphyrin IX (PROTO IX) concentration over time in the mouse group treated with CPX (solid line) and the control group (dashed line). D) Concentration of porphyrins in urine at day 45 of treatment (normalized versus creatinine concentration). E) Change in UROI levels in the liver at day 45 of treatment (weight normalized) F) CPX reduces splenomegaly after 45 days of treatment since the spleen volume of the untreated mice (top row) is higher than the CPX treated group (bottom row) Splenomegaly is directly associated with haemolytic anaemia.
Upon treatment disruption, the porphyrin levels are restored, but slowly.
Additionally, after 45 days of treatment, ciclopirox reduced in 40% the porphyrin levels in liver tissue (shown in FIG. 5-E for UROI) and the splenomegaly (FIG. 5-F)—evidence of reduced haemolysis. Moreover, there was a significant weight reduction of the spleen when comparing the ciclopirox group (mean 410±86 mg, FIG. 5-F bottom row) and the untreated group (mean 985±204 mg, FIG. 5-F top row).
A total of 16 animals (murine model of CEP) were used in the experiment and ciclopirox was mixed with the food pellets; 7 animals had food with ciclopirox (plasma levels achieved between 15 and 20 μM) and 9 animals were not given treatment. The isomer I porphyrin levels were monitored in the blood weekly. After a basal (pre-treatment) sample (day 0), treatment was started on day 2 and the first post-treatment sample was obtained on day 3, followed by weekly monitoring.

[3] = treated vs control group, up to day 45

CC(C)C[C@@H](C=O)NC(=O)[C@H](CC(C)C)NC(=O)[C@H](CC(C)C)NC(=O)OCc1ccccc1 [MG] (Cbz-Leu-Leu-Leu-aldehyde)
Porphyrin accumulation / cellular phenotype (fluorocytes) (HEK 562): reduces toxic porphyrin levels
UROI level by HPLC (HEK 562 cells): reduction of UROI
Skin lesions [1]: decreased skin lesions

Cc1cc(C2CCCCC2)n(O)c(=O)c1 [ciclopirox, 6-cyclohexyl-1-hydroxy-4-methyl-2(1H)-pyridone]
C73N-UROIIIS catalytic (enzymatic) activity (C73N-UROIIIS): recovers the enzymatic activity
Direct binding to the enzyme (UROIIIS): Direct binding has also been demonstrated
Intracellular UROIIIS-GFP fluorescence levels (C73R- and P248Q-UROIIIS): largely restitutes the fluorescence levels observed with WT-UROIIIS
Porphyrin accumulation / cellular phenotype (fluorocytes) (HEK 562): largely restore the normal HEK cellular phenotype
UROI level by HPLC (HEK 562 cells): reduction of UROI
Reduction of porphyrin levels in liver tissue (UROI) ([2]; after 45 days of treatment): 40%
Splenomegaly ([2]; after 45 days of treatment): reduced
Spleen weight (mean) ([2]; after 45 days of treatment, untreated group 985±204 mg): 410 ± 86 mg
Isomer I porphyrins in urine ([2]; day 45, normalized versus creatinine): significantly reduced
Protoporphyrin IX (PROTO IX) concentration ([2]; over time, treated vs control): increase the concentration
COPRO I porphyrin in blood (RBC) [2, 3]: significantly reduced
URO I porphyrin in blood (RBC) [2, 3]: significantly reduced

Reference: patent US10420755B2, “Use of ciclopirox for the treatment of congenital erythropoietic porphyria” (ASOCIACIÓN CENTRO DE INVESTIGACIÓN COOPERATIVA EN …, priority 2016, dated 2019)
